Results: patent publication US10597388B2, “Pyridazinone herbicides” (FMC CORPORATION, priority 2014, dated 2020)

How the values were obtained:
Experiment in all cases: Test C greenhouse herbicide test, pre- and postemergence
Type in all cases: in vivo
[1] = system: blackgrass (Alopecurus myosuroides)
How it was run: (§1)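 Greenhouse pots; pre-em on seeded loam:sand blend, post-em on 2–18 cm plants (1–4 leaf) in sphagnum peat/vermiculite medium. Formulation: non-phytotoxic solvent + surfactant. Read-out: visual % control (0–100) vs controls at 13–15 d.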

[2] = system: waterhemp (common waterhemp, Amaranthus rudis)
How it was run: as §1

[3] = system: lambsquarters (Chenopodium album)
How it was run: as §1

[4] = system: ryegrass, Italian (Italian ryegrass, Lolium multiflorum)
How it was run: as §1

[5] = system: galium (catchweed bedstraw, Galium aparine)
How it was run: as §1

[6] = system: crabgrass, large (large crabgrass, Digitaria sanguinalis)
How it was run: as §1

[7] = system: pigweed (Amaranthus retroflexus)
How it was run: as §1

[8] = system: foxtail, giant (giant foxtail, Setaria faberii)
How it was run: as §1

[9] = system: velvetleaf (Abutilon theophrasti)
How it was run: as §1

soybean (Glycine max) = system: soybean (Glycine max)
How it was run: as §1

[10] = system: wheat (winter wheat, Triticum aestivum)
How it was run: as §1

[11] = system: nutsedge, yellow (yellow nutsedge, Cyperus esculentus)
How it was run: as §1

[12] = system: barnyardgrass (Echinochloa crus-galli)
How it was run: as §1

[13] = system: morningglory (Ipomoea coccinea)
How it was run: as §1

corn (Zea mays) = system: corn (Zea mays)
How it was run: as §1

[14] = Postemergence, 31 g ai/ha, 0 to 100 scale (0 no effect, 100 complete control)
[15] = Postemergence, 125 g ai/ha, scale 0 to 100, 0 is no effect, 100 is complete control
[16] = Postemergence, 250 g ai/ha, scale 0 to 100, 0 no effect, 100 complete control, 13 to 15 d
[17] = Preemergence, 31 g ai/ha, scale 0 to 100, 0 is no effect, 100 is complete control
[18] = Preemergence, 62 g ai/ha, scale 0 to 100, 0 is no effect, 100 is complete control
[19] = Preemergence, 125 g ai/ha, scale 0 to 100, 0 is no effect, 100 is complete control
[20] = Preemergence, 250 g ai/ha, scale 0 to 100, 0 no effect, 100 complete control
[21] = postemergence, 62 g ai/ha, scale 0 to 100, 0 no effect, 100 complete control

Cc1nn(C)c(=O)c(-c2ccc(F)c3ccccc23)c1O [Compound 41]
65: Plant response rating, Crabgrass, Large [6, 19] | Pigweed plant response rating [7, 14] | Plant response rating, Foxtail, Giant [8, 16] | Velvetleaf plant response rating [9, 21] | Wheat plant response rating [10, 20] | Nutsedge, Yellow plant response rating [11, 14] | Plant response rating, Nutsedge, Yellow [11, 15] | Nutsedge, Yellow plant response rating [11, 21]
55: Soybean plant response rating (soybean (Glycine max); [20])
90: Blackgrass plant response rating [1, 20] | Plant response rating, Waterhemp [2, 15] | Lambsquarters plant response rating [3, 14] | Plant response rating, Lambsquarters [3, 18] | Lambsquarters plant response rating [3, 20] | Plant response rating, Ryegrass, Italian [4, 15] | Plant response rating, Ryegrass, Italian [4, 16] | Ryegrass, Italian plant response rating [4, 21] | Plant response rating, Galium [5, 17] | Plant response rating, Velvetleaf [9, 16] | Plant response rating, Velvetleaf [9, 18]
70: Plant response rating, Blackgrass [1, 17] | Crabgrass, Large plant response rating [6, 20]
85: Plant response rating, Blackgrass [1, 19] | Plant response rating, Waterhemp [2, 16] | Plant response rating, Waterhemp [2, 17] | Plant response rating, Foxtail, Giant [8, 19] | Foxtail, Giant plant response rating [8, 20] | Plant response rating, Velvetleaf [9, 15] | Plant response rating, Velvetleaf [9, 17] | Plant response rating, Barnyardgrass [12, 19] | Plant response rating, Morningglory [13, 17]
45: Plant response rating, Foxtail, Giant [8, 17]
30: Blackgrass plant response rating [1, 14] | Plant response rating, Crabgrass, Large [6, 17] | Plant response rating, Foxtail, Giant [8, 15] | Velvetleaf plant response rating [9, 14] | Plant response rating, Wheat [10, 15]
35: Blackgrass plant response rating [1, 21] | Plant response rating, Crabgrass, Large [6, 16] | Plant response rating, Crabgrass, Large [6, 18] | Barnyardgrass plant response rating [12, 21]
50: Plant response rating, Blackgrass [1, 15] | Plant response rating, Soybean (soybean (Glycine max); [19]) | Plant response rating, Wheat [10, 19]
0: Plant response rating, Soybean (soybean (Glycine max); [17]) | Plant response rating, Wheat [10, 17] | Wheat plant response rating [10, 21] | Plant response rating, Corn (corn (Zea mays); [17]) | Plant response rating, Corn (corn (Zea mays); [18])
95: Plant response rating, Waterhemp [2, 18] | Plant response rating, Lambsquarters [3, 15] | Lambsquarters plant response rating [3, 21] | Plant response rating, Ryegrass, Italian [4, 17] | Plant response rating, Ryegrass, Italian [4, 18] | Plant response rating, Ryegrass, Italian [4, 19] | Ryegrass, Italian plant response rating [4, 20] | Plant response rating, Pigweed [7, 16] | Plant response rating, Velvetleaf [9, 19] | Barnyardgrass plant response rating [12, 20] | Morningglory plant response rating [13, 14] | Plant response rating, Morningglory [13, 18] | Plant response rating, Morningglory [13, 19] | Morningglory plant response rating [13, 21]
80: Plant response rating, Blackgrass [1, 18] | Ryegrass, Italian plant response rating [4, 14] | Plant response rating, Foxtail, Giant [8, 18] | Plant response rating, Nutsedge, Yellow [11, 16] | Nutsedge, Yellow plant response rating [11, 20]
25: Plant response rating, Crabgrass, Large [6, 15] | Barnyardgrass plant response rating [12, 14]
15: Foxtail, Giant plant response rating [8, 14] | Foxtail, Giant plant response rating [8, 21] | Soybean plant response rating (soybean (Glycine max); [14]) | Plant response rating, Soybean (soybean (Glycine max); [16]) | Soybean plant response rating (soybean (Glycine max); [21])
60: Plant response rating, Blackgrass [1, 16] | Plant response rating, Nutsedge, Yellow [11, 17] | Plant response rating, Barnyardgrass [12, 16]
20: Plant response rating, Soybean (soybean (Glycine max); [15]) | Plant response rating, Soybean (soybean (Glycine max); [18]) | Plant response rating, Corn (corn (Zea mays); [16])
98: Plant response rating, Lambsquarters [3, 16] | Plant response rating, Galium [5, 19] | Galium plant response rating [5, 20] | Velvetleaf plant response rating [9, 20] | Plant response rating, Morningglory [13, 16] | Morningglory plant response rating [13, 20]
10: Crabgrass, Large plant response rating [6, 21] | Wheat plant response rating [10, 14] | Plant response rating, Barnyardgrass [12, 17] | Plant response rating, Corn (corn (Zea mays); [15])
100: Plant response rating, Waterhemp [2, 19] | Waterhemp plant response rating [2, 20] | Plant response rating, Lambsquarters [3, 19] | Galium plant response rating [5, 14] | Plant response rating, Galium [5, 15] | Plant response rating, Galium [5, 16] | Plant response rating, Galium [5, 18] | Galium plant response rating [5, 21] | Plant response rating, Pigweed [7, 18] | Plant response rating, Pigweed [7, 19] | Pigweed plant response rating [7, 20] | Plant response rating, Morningglory [13, 15]
75: Waterhemp plant response rating [2, 14] | Waterhemp plant response rating [2, 21] | Plant response rating, Lambsquarters [3, 17] | Plant response rating, Pigweed [7, 15] | Plant response rating, Pigweed [7, 17] | Pigweed plant response rating [7, 21] | Plant response rating, Nutsedge, Yellow [11, 18] | Plant response rating, Nutsedge, Yellow [11, 19]
40: Plant response rating, Barnyardgrass [12, 15] | Plant response rating, Barnyardgrass [12, 18] | Corn plant response rating (corn (Zea mays); [20])
5: Crabgrass, Large plant response rating [6, 14] | Plant response rating, Wheat [10, 16] | Plant response rating, Wheat [10, 18] | Corn plant response rating (corn (Zea mays); [14]) | Plant response rating, Corn (corn (Zea mays); [19]) | Corn plant response rating (corn (Zea mays); [21])
